In US8343966B2, “Organic compounds” (Novartis AG, priority 2008, dated 2013):

target: T1, human ALK5 (ALK5 T204D kinase domain) (Homo sapiens, UniProt P36897, T204D); assay: ALK5 kinase assay, [33P] phosphate incorporation into casein; format: biochemical; conditions: casein substrate, 1 μM unlabelled ATP
T1 construct: The kinase domain of human ALK5 (amino acids 200-503); made in house; host or cells: insect cells (baculovirus)
T1 sequence (P36897 200-503 T204D): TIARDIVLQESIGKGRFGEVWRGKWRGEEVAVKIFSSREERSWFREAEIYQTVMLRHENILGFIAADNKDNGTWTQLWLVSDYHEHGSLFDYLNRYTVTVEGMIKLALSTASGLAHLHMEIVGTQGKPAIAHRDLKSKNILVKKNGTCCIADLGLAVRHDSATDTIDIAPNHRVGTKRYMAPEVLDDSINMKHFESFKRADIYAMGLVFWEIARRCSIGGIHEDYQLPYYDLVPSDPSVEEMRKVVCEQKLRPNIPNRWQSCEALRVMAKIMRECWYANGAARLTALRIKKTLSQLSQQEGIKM
Protocol: The kinase activity of ALK5 is assessed by measuring radiolabelled phosphate [33P] incorporation in to the generic substrate, casein. The kinase domain of human ALK5 (amino acids 200-503) is fused to an N-terminal histidine tag. The kinase activity of ALK5 is rendered constitutive via point mutation at amino acid 204 (threonine to aspartate modification, ALK5 T204D) and the kinase construct is engineered to be expressed from a baculovirus expression construct in insect cells. The purified, recombinantly-expressed histidine-tagged ALK5 T204D protein is dissolved at 5.4 mg/ml in 50 mM Tris-HCl pH 8.0, 150 mM NaCl, 5 mM DTT. ALK5 T204D is dissolved to 2.5 μg/ml in assay buffer (Assay buffer: 20 mM Tris-HCl pH 7.4, 10 mM MgCl2, 2 mM MnCl2) on the day of use.
Test compounds and reference compounds are dissolved in assay buffer without DTT containing 5% (v/v) DMSO. Stock solutions of test and reference compounds are diluted in assay buffer with DTT (1.25 mM) containing 4.5% (v/v) DMSO. 10 μl of test or reference compound are added to the appropriate wells of 96 well U-bottomed plate. Total enzyme activity is determined by measuring ALK5 T204D activity in the absence of ALK5 kinase inhibitor reference compounds. Non-specific binding (NSB) is determined by measuring the activity of ALK5 T204D in the presence of ALK5 kinase inhibitor reference compounds. 10 μl of dephosphorylated casein stock solution (dephosphorylated casein is dissolved in ddH2O at 20 mg/ml) is added per well (200 μg/well final assay concentration). 20 μl of ALK5 T204D (2.5 μg/ml solution) is added per well (50 ng/well final assay concentration). The plates are left to incubate at room temperature for 10 minutes.
10 μl of ATP mix is added to the well to initiate the reaction (0.66 nM [^33P]ATP/1 μM unlabelled ATP/well final assay concentration). The ATP mix is prepared as follows, unlabelled ATP (3 mM) is dissolved in ddH2O and pH adjusted to 7.4. The stock concentration of [^33P]ATP is 10 μCi/μl. The appropriate volume of [^33P]ATP is added to unlabelled ATP solution such that the final assay concentration per well is 0.1 μCi. Following addition of the ATP mix, the plates are incubated at room temperature for 50 minutes. The kinase reaction is terminated by the addition of 50 μL Stop Buffer (20 mM Tris-HCl pH 7.4, 10 mM EDTA).
75 μl/well from the reaction plate is transferred to a Multiscreen-IP plate (MultiScreen-IP plates are prepared by added 50 μL of 70% (v/v) ethanol per well and incubated for 5 minutes at room temperature. The ethanol is removed by aspiration via a MultiScreen HTS Vacuum Manifold unit (Millipore, Cat no: MSVMHT500). The plates are washed twice by adding 200 μl/well ddH2O). The MultiScreen-IP plate is incubated at room temperature for 30 minutes to allowing binding of casein to the plate. The MultiScreen-IP plates are washed three times by adding 200 μl/well 100 mM phosphoric acid solution and the gasket is carefully removed from the back of the MultiScreen-IP plate and the plate dried in the oven for 30 minutes. The MultiScreen-IP plate is backsealed, 50 μL of Microscint™20 is added, then the plates are topsealed and radiolabelled casein detected and quantified on a TopCount™ plate-reader using the ^33P scintillation protocol.

Structure (SMILES)	IC50
c1cncc(-c2cc(NCc3cccc4[nH]ccc34)nc(-c3ccco3)c2)c1 [Example 1.2, (6′-Furan-2-yl-[3,4′]bipyridinyl-2′-yl)-(1H-indol-4-ylmethyl)-amine]	19 nM
CC(C)(O)c1cc(-c2cncc(-c3ccc(CN4CCN(C(C)(C)C)CC4)cc3)c2)cc(-c2ccccn2)n1 [Example 2.82, 2-{5″-[4-(4-tert-Butyl-piperazin-1-ylmethyl)-phenyl]-[2,2′;4′,3″]terpyridin-6′-yl}-propan-2-ol]	36 nM
CC(C)N1CCN(Cc2ccc(-c3cncc(-c4cc(N)nc(-c5ccccn5)c4)c3)cc2)CC1 [Example 2.72, 5″-[4-(4-Isopropyl-piperazin-1-ylmethyl)-phenyl]-[2,2′;4′,3″]terpyridin-6′-ylamine]	42 nM
Cn1cc(-c2cncc(-c3cc(-c4ccccn4)nc(C(C)(C)O)c3)c2)cn1 [Example 2.86, 2-[5″-(1-Methyl-1H-pyrazol-4-yl)-[2,2′;4′,3″]terpyridin-6′-yl]-propan-2-ol]	92 nM
O=C(c1ccc(-c2cncc(-c3cc(NC4CC4)nc(-c4ccccn4)c3)c2)cc1)N1CCNCC1 [Example 2.30, [4-(6′-Cyclopropylamino-[2,2′;4′,3″]terpyridin-5″-yl)-phenyl]-piperazin-1-yl-methanone]	8 nM
Cc1ccc(-c2cc(-c3cncc(-c4ccc(CN5CCN(C(C)C)CC5)cc4)c3)cc(NC3CC3)n2)o1 [Example 2.125, Cyclopropyl-[5-[4-(4-isopropyl-piperazin-1-ylmethyl)-phenyl]-6′-(5-methyl-furan-2-yl)-[3,4′]bipyridinyl-2′-yl]-amine]	38 nM
CC(C)N1CCN(Cc2ccc(-c3cncc(-c4cc(NC5CC5)nc(-c5ccccn5)c4)c3)cc2)CC1 [Example 2.31, Cyclopropyl-{5″-[4-(4-isopropyl-piperazin-1-ylmethyl)-phenyl]-[2,2′;4′,3″]terpyridin-6′-yl}-amine]	4 nM
CC(C)Nc1cc(-c2cncc(-c3cccc(CN4CCN(C(C)(C)C)CC4)c3)c2)cc(-c2ccccn2)n1 [Example 2.133, {5″-[3-(4-tert-Butyl-piperazin-1-ylmethyl)-phenyl]-[2,2′;4′,3″]terpyridin-6′-yl}-isopropyl-amine]	357 nM
CNc1cc(-c2cncc(-c3ccc(CN4CCN(C(C)C)CC4)cc3)c2)cc(-c2ccccn2)n1 [Example 2.24, {5″-[4-(4-Isopropyl-piperazin-1-ylmethyl)-phenyl]-[2,2′;4′,3″]terpyridin-6′-yl}-methyl-amine]	14 nM
Oc1cccc(CNc2cc(-c3cncc(Br)c3)cc(-c3ccccn3)n2)c1 [Example 1.23, 3-[(5″-Bromo-[2,2′;4′,3″]terpyridin-6′-ylamino)-methyl]-phenol]	214 nM
CC(C)(C)N1CCN(Cc2ccc(-c3cncc(-c4cc(NC5CC5)nc(-c5ccccn5)c4)c3)cc2)CC1 [Example 2.120, {5″-[4-(4-tert-Butyl-piperazin-1-ylmethyl)-phenyl]-[2,2′;4′,3″]terpyridin-6′-yl}-cyclopropyl-amine]	22 nM
CNc1cc(-c2cncc(-c3ccc(C(=O)N4CCN(C)CC4)cc3)c2)cc(-c2cccc(C)n2)n1 [Example 2.28, [4-(6-Methyl-6′-methylamino-[2,2′;4′,3″]terpyridin-5″-yl)-phenyl]-(4-methyl-piperazin-1-yl)-methanone]	52 nM
[2H]C([2H])([2H])Nc1cc(-c2cncc(-c3ccc(CN4CCNCC4)cc3)c2)cc(-c2ccccn2)n1 [Example 2.102, Methyl-d3-[5″-(4-piperazin-1-ylmethyl-phenyl)-[2,2′;4′,3″]terpyridin-6′-yl]-amine]	14 nM
CCNc1cc(-c2cncc(-c3cc(C)cc(CN)c3)c2)cc(-c2ccccn2)n1 [Example 2.116, [5″-(3-Aminomethyl-5-methyl-phenyl)-[2,2′;4′,3″]terpyridin-6′-yl]-ethyl-amine]	48 nM
Cc1cc(CN2CCN(C(C)C)CC2)ccc1-c1cncc(-c2cc(-c3ccccn3)nc(C(C)(C)O)c2)c1 [Example 2.90, 2-{5″-[4-(4-Isopropyl-piperazin-1-ylmethyl)-2-methyl-phenyl]-[2,2′;4′,3″]terpyridin-6′-yl}-propan-2-ol]	71 nM
CNc1cc(-c2cncc(-c3ccc(C(=O)N4CCN(C)CC4)cc3)c2)cc(-c2ccccn2)n1 [Example 2.106, [4-(6′-Methyl-d3-amino-[2,2′;4′,3″]terpyridin-5″-yl)-phenyl]-(4-methyl-d3-piperazin-1-yl)-methanone]	9 nM
c1ccc(-c2cc(-c3cccnc3)cc(NCCc3cccc4[nH]ccc34)n2)nc1 [Example 1.6, [2-(1H-Indol-4-yl)-ethyl]-[2,2′;4′,3″]terpyridin-6′-yl-amine]	29 nM

The remaining lines, values ahead:

IC50	Structure (SMILES)
16 nM	c1cncc(-c2cc(NCCc3c[nH]c4ccccc34)nc(-c3ccco3)c2)c1 [Example 1.1, (6′-Furan-2-yl-[3,4′]bipyridinyl-2′-yl)-[2-(1H-indol-3-yl)-ethyl]-amine]
13 nM	[2H]C([2H])([2H])Nc1cc(-c2cncc(-c3ccc(CN4CCN(C(C)(C)C)CC4)cc3)c2)cc(-c2ccccn2)n1 [Example 2.107, {5″-[4-(4-tert-Butyl-piperazin-1-ylmethyl)-phenyl]-[2,2′;4′,3″]terpyridin-6′-yl}-methyl-d3-amine]
209 nM	CC(C)N1CCN(Cc2ccc(-c3cncc(-c4cc(-c5ccccn5)nc(C(C)(C)C)c4)c3)cc2)CC1 [Example 2.95, 6′-tert-Butyl-5″-[4-(4-isopropyl-piperazin-1-ylmethyl)-phenyl]-[2,2′;4′,3″]terpyridine]
154 nM	CCNc1cc(-c2cncc(-c3cccc(CN4CCN(C(C)(C)C)CC4)c3)c2)cc(-c2ccccn2)n1 [Example 2.111, {5″-[3-(4-tert-Butyl-piperazin-1-ylmethyl)-phenyl]-[2,2′;4′,3″]terpyridin-6′-yl}-ethyl-amine]
190 nM	c1ccc(-c2cc(-c3cccnc3)cc(NCc3cccc4[nH]ccc34)n2)nc1 [Example 1.15, (1H-Indol-4-ylmethyl)-[2,2′;4′,3″]terpyridin-6′-yl-amine]
17 nM	CNc1cc(-c2cncc(-c3ccc(C(=O)N4CCN(C)CC4)cc3)c2)cc(-c2ccccn2)n1 [Example 2.1, [4-(6′-Methylamino-[2,2′;4′,3″]terpyridin-5″-yl)-phenyl]-(4-methyl-piperazin-1-yl)-methanone]
89 nM	c1ccc(-c2cc(-c3cncc(-c4ccc(CN5CCNCC5)cc4)c3)cc(NC3CC3)n2)nc1 [Example 2.70, Cyclopropyl-[5″-(4-piperazin-1-ylmethyl-phenyl)-[2,2′;4′,3″]terpyridin-6′-yl]-amine]
59 nM	[2H]C([2H])([2H])N1CCN(C(=O)c2ccc(-c3cncc(-c4cc(-c5ccccn5)nc(C(C)(C)O)c4)c3)cc2)CC1 [Example 2.83, {4-[6′-(1-Hydroxy-1-methyl-ethyl)-[2,2′;4′,3″]terpyridin-5″-yl]-phenyl}-(4-methyl-d3-piperazin-1-yl)-methanone]
57 nM	c1ccc(-c2cc(-c3cccnc3)cc(NCCc3c[nH]c4ccccc34)n2)nc1 [Example 1.10, [2-(1H-Indol-3-yl)-ethyl]-[2,2′;4′,3″]terpyridin-6′-yl-amine]
